According to patent US20230060425A1, “FUSED BICYCLIC HETEROCYCLE DERIVATIVES AS PESTICIDES” (Bayer Aktiengesellschaft, priority 2019, published 2023):

Tests used:
Format in all cases: in vivo
Myzus persicae [1] = assay: Myzus persicae oral test; conditions: 120 h, application rate 4 ppm, after 5 days, read-out: efficacy
Procedure: Solvent: 100 parts by weight of acetone
To produce a suitable preparation of active compound, 1 part by weight of active compound is dissolved using the specified parts by weight of solvent and made up with water until the desired concentration is attained.
50 μl of the active compound preparation are transferred into microtitre plates and made up to a final volume of 200 μl with 150 μl of IPL41 insect medium (33%+15% sugar). Subsequently, the plates are sealed with parafilm, which a mixed population of green peach aphids (Myzus persicae) within a second microtitre plate is able to puncture and imbibe the solution through it.
(§1) After 5 days, the efficacy in % is determined. 100% means that all the aphids have been killed; 0% means that no aphids have been killed.

Myzus persicae [2] = assay: Myzus persicae spray test; conditions: foliar, 120 h, application rate 100 g/ha, Chinese cabbage leaf discs, after 5 days, read-out: efficacy
Procedure: Myzus persicae—Spray Test
(§2) Solvent: • 78 parts by weight of acetone • 1.5 parts by weight of dimethylformamide
(§3) Emulsifier: alkylaryl polyglycol ether
(§4) To produce a suitable active compound preparation, 1 part by weight of active compound is dissolved using the stated parts by weight of solvent and made up with water containing an emulsifier concentration of 1000 ppm until the desired concentration is attained. To produce further test concentrations, the formulation is diluted with emulsifier-containing water.
Discs of Chinese cabbage leaves (Brassica pekinensis) infested by all stages of the green peach aphid (Myzus persicae) are sprayed with an active compound formulation of the desired concentration.
as §1

Phaedon cochleariae = Phaedon cochleariae spray test; conditions: foliar, 168 h, application rate 100 g/ha, Chinese cabbage leaf discs, after 7 days, read-out: efficacy
Procedure: Phaedon cochleariae—Spray Test
(§5) Solvent: • 78.0 parts by weight of acetone • 1.5 parts by weight of dimethylformamide
as §3, §4
Discs of Chinese cabbage leaves (Brassica pekinensis) are sprayed with an active compound formulation of the desired concentration and, after drying, populated with larvae of the mustard beetle (Phaedon cochleariae).
After 7 days, the efficacy in % is determined. 100% means that all the beetle larvae have been killed; 0% means that no beetle larvae have been killed.

Spodoptera frugiperda = Spodoptera frugiperda spray test; conditions: foliar, 168 h, application rate 100 g/ha, maize leaf discs, after 7 days, read-out: efficacy
Procedure: Spodoptera frugiperda—Spray Test
as §5, §3
To produce further test concentrations, the formulation is diluted with emulsifier-containing water.
After 7 days, the efficacy in % is determined. 100% means that all the caterpillars have been killed; 0% means that no caterpillar has been killed.

Ctenocephalides felis [3] = assay: Ctenocephalides felis oral test; conditions: 48 h, application rate 100 ppm, in citrated cattle blood, after 2 days, read-out: efficacy (kill in %)
Procedure: Ctenocephalides felis—Oral Test
Solvent: Dimethyl sulfoxide
To produce a suitable active compound formulation, 10 mg of active compound are mixed with 0.5 ml of dimethyl sulfoxide. Dilution with citrated cattle blood gives the desired concentration.
About 20 unfed adult cat fleas (Ctenocephalides felis) are placed into a chamber which is closed at the top and bottom with gauze. A metal cylinder whose bottom end is closed with parafilm is placed onto the chamber. The cylinder contains the blood/active compound formulation, which can be imbibed by the fleas through the parafilm membrane.
After 2 days, the kill in % is determined. 100% means that all of the fleas have been killed; 0% means that none of the fleas have been killed.

Diabrotica balteata = Diabrotica balteata spray test; conditions: 168 h, application rate 160 μg/cavity (μg/well), wheat grains, after 7 days, read-out: efficacy
Procedure: Diabrotica balteata—Spray Test
as §2, §3, §4
Pre-swollen wheat grains (Triticum aestivum) are incubated in a multiwell plate filled with agar and a little water for one day (5 seed grains per well). The germinated wheat grains are sprayed with an active compound preparation of the desired concentration. Subsequently, each cavity is infected with 10-20 beetle larvae of Diabrotica balteata.
After 7 days, the efficacy in % is determined. 100% means that all wheat plants have grown as in the untreated, uninfected control; 0% means that no wheat plant has grown.

Meloidogyne incognita = Meloidogyne incognita test; conditions: 336 h, application rate 20 ppm, lettuce, after 14 days, formation of galls, read-out: nematicidal efficacy
Procedure: Meloidouyne incognita Test
Solvent: 125.0 parts by weight of acetone
To produce a suitable active compound formulation, 1 part by weight of active compound is mixed with the stated amount of solvent and the concentrate is diluted to the desired concentration with water.
Vessels are filled with sand, active compound solution, an egg/larvae suspension of the southern root-knot nematode (Meloidogyne incognita) and lettuce seeds. The lettuce seeds germinate and the plants develop. The galls develop on the roots.
After 14 days, the nematicidal efficacy in % is determined by the formation of galls. 100% means that no galls were found; 0% means that the number of galls on the treated plants corresponds to the untreated control.

Ctenocephalides felis [4] = assay: Ctenocephalides felis in vitro contact test with adult cat fleas; conditions: application rate 5 μg/cm^2 (=500 g/ha); after 48 h; fleas dead or moribund
Procedure: Ctenocephalides felis—In Vitro Contact Tests with Adult Cat Fleas
For the coating of the test tubes, 9 mg of active compound are first dissolved in 1 ml of acetone p.a. and then diluted to the desired concentration with acetone p.a. 250 μl of the solution are distributed homogeneously on the inner walls and the base of a 25 ml glass tube by turning and rocking on an orbital shaker (rocking rotation at 30 rpm for 2 h). With 900 ppm of active compound solution and internal surface area 44.7 cm^2, given homogeneous distribution, an area-based dose of 5 μg/cm^2 is achieved.
After the solvent has evaporated off, the tubes are populated with 5-10 adult cat fleas (Ctenocephalides felis), sealed with a perforated plastic lid and incubated in a horizontal position at room temperature and ambient humidity. After 48 h, efficacy is determined. To this end, the tubes are stood upright and the fleas are knocked to the base of the tube. Fleas which remain motionless at the base or move in an uncoordinated manner are considered to be dead or moribund.
100% efficacy means that all the fleas were dead or moribund. 0% efficacy means that no fleas were harmed.

SMILES | pest or weed control at 4 ppm (Myzus persicae [1]) | pest or weed control at 100 g/ha (Myzus persicae [2]) | pest or weed control at 100 g/ha (Phaedon cochleariae) | pest or weed control at 100 g/ha (Spodoptera frugiperda) | pest or weed control at 100 ppm (Ctenocephalides felis [3]) | pest or weed control at 160 µg/well (Diabrotica balteata) | pest or weed control at 20 ppm (Meloidogyne incognita) | efficacy (Ctenocephalides felis [4])
CCS(=O)(=O)c1c(-c2nc3cc(C(F)(F)F)cnc3n2C)ncc2cc(C#N)ccc12 [Example I-001] | 100% | 90% | 100% | 100% |  |  |  | 
CCS(=O)(=O)c1c(-c2nc3cc(C(F)(F)F)cnc3n2C)ncc2cc(SCC(F)(F)F)ccc12 [Example I-002] | 100% | 90% | 100% |  |  |  |  | 
CCS(=O)(=O)c1c(-c2nc3cc(C(F)(F)F)nnc3n2C)ncc2cc(C)ccc12 [Example I-003] | 100% | 90% |  |  | 80% |  |  | 
CCS(=O)(=O)c1c(-c2nc3cc(C(F)(F)F)cnc3n2C)ncc2c(Br)cccc12 [Example I-004] | 100% |  |  | 100% |  | 100% | 90% | 
CCS(=O)(=O)c1c(-c2nc3cc(C(F)(F)C(F)(F)F)cnc3n2C)ncc2c(Br)cccc12 [Example I-006] | 90% | 100% |  | 100% |  | 100% | 90% | 
CCS(=O)(=O)c1c(-c2nc3cc(C(F)(F)F)cnc3n2C)ncc2cc(C3CC3)ccc12 [Example I-007] | 100% |  | 100% | 67% |  |  |  | 
CCS(=O)(=O)c1c(-c2nc3cc(C(F)(F)F)nnc3n2C)ncc2cc(Cl)ccc12 [Example I-008] | 100% |  | 100% | 100% | 100% |  | 100% | 
CCS(=O)(=O)c1c(-c2nc3cc(C(F)(F)C(F)(F)F)ncc3n2C)ncc2c(C(F)(F)F)cccc12 [Example I-012] | 100% | 90% | 100% | 100% | 100% |  |  | 90%
CCS(=O)(=O)c1c(-c2nc3cc(C(F)(F)F)ncc3n2C)ncc2c(C(F)(F)F)cccc12 [Example I-013] | 100% | 100% | 100% | 100% | 100% |  |  | 
CCS(=O)(=O)c1c(-c2nc3cc(C(F)(F)C(F)(F)F)cnc3n2C)ncc2c(C(F)(F)F)cccc12 [Example I-014] | 90% | 100% | 100% | 100% |  |  |  | 
CCS(=O)(=O)c1c(-c2nc3cc(C(F)(F)C(F)(F)F)ncc3n2C)ncc2c(C#N)cccc12 [Example I-020] | 100% | 90% |  | 100% |  | 100% | 90% | 
